Measurements reported in patent US9701670B2, “Pyrazolyl-ureas as kinase inhibitors” (RESPIVERT LIMITED, priority 2013, dated 2017).

Legend:
[1] = biological target: T1, p38 MAPKα isoform (MAPK14) (Homo sapiens (Human), UniProt Q16539); test: p38 MAPKα enzyme inhibition (FRET, Z-LYTE), Method 2; format: biochemical; settings: Method 2, different laboratory (Table 4a2)
Procedure: The enzyme inhibitory activities of compounds disclosed herein are determined by FRET using synthetic peptides labelled with both donor and acceptor fluorophores (Z-LYTE, Invitrogen Ltd., Paisley, UK).
The inhibitory activities of test compounds against the p38 MAPKα isoform (MAPK14: Invitrogen), are evaluated indirectly by determining the level of activation/phosphorylation of the down-stream molecule, MAPKAP-K2. The p38 MAPKα protein (80 ng/mL, 2.5 μL) is mixed with the test compound (2.5 μL of either 4 μg/mL, 0.4 μg/mL, 0.04 μg/mL or 0.004 μg/mL) for 2 hr at RT. […] The mixture is incubated for 1 hr at RT. Development reagent (protease, 5 μL) is added for 1 hr prior to detection in a fluorescence microplate reader (Varioskan® Flash, ThermoFisher Scientific).
In all cases, the site-specific protease cleaves non-phosphorylated peptide only and eliminates the FRET signal. Phosphorylation levels of each reaction are calculated using the ratio of coumarin emission (donor) over fluorescein emission (acceptor), for which high ratios indicate high phosphorylation and low ratios indicate low phosphorylation levels.

[2] = system: β-catenin in d-U937 cells; test: (m) Accumulation of β catenin in d-U937 cells; format: cell-based, human
Procedure: U937 cells, a human monocytic cell line, are differentiated into macrophage-type cells by incubation with PMA; (100 ng/mL) for between 48 to 72 hr. The cells are then incubated with either final concentrations of test compound or vehicle for 18 hr. The induction of β-catenin by the test compounds is stopped by replacing the media with 4% formaldehyde solution. Endogenous peroxide activity is neutralised by incubating with quenching buffer (100 μL, 0.1% sodium azide, 1% H2O2 in PBS with 0.05% Tween-20) for 20 min. The cells are washed with washing buffer (200 μL; PBS containing 0.05% Tween-20) and incubated with blocking solution (200 μL; 5% milk in PBS) for 1 hr, re-washed with washing buffer (200 μL) and then incubated overnight with anti-β-catenin antibody solution (50 μL) in 1% BSA/PBS (BD, Oxford, UK).
After washing with washing buffer (3×200 μL; PBS containing 0.05% Tween-20), cells are incubated with an HRP-conjugated secondary antibody solution (100 μL) in 1% BSA/PBS (Dako, Cambridge, UK) and the resultant signal is determined colourimetrically (OD: 450 nm with a reference wavelength of 655 nm) using TMB substrate (50 μL; R&D Systems, Abingdon, UK). This reaction is stopped by addition of 1N H2SO4 solution (50 μL). Cells are then washed with washing buffer and 2% crystal violet solution (50 μL) is applied for 30 min. After washing with washing buffer (3×200 μL), 1% SDS (100 μL) is added to each well and the plates are shaken lightly for 1 hr prior to measuring the absorbance at 595 nm (Varioskan® Flash, Thermo-Fisher Scientific).
The measured OD450-655 readings are corrected for cell number by dividing the OD450-655 by the OD595 readings. […] A signal less than 0.15 (15%) of that observed for the standard control is designated as “-ve”.

[3] = biological target: T1, p38 MAPKα isoform (MAPK14); test: p38 MAPKα enzyme inhibition (FRET, Z-LYTE), Method 1; format: biochemical; settings: Method 1 (Table 4a1)
[4] = system: Differentiated U937 cells; test: (l) Cell viability: MTT assay; format: cell-based, human; settings: 1 μg/mL
How it was run: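 MTT read-out (1 h, absorbance 550 nm) on d-U937 cells after pre-incubation with 1 or 10 μg/mL compound under two regimes: 4 h, 5% FCS, or 24 h, 10% FCS RPMI1640. Values are percent loss of viability relative to vehicle (0.5% DMSO), so increases are reported as negative.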

BDF1 mice = test: (C) TNBS-induced colitis in mice; format: in vivo, mouse; set-up: TNBS Ulcer grade / TNBS LP inflammation: scale not given here; settings: mice, 2.5 mg/kg oral BID, 2 days
Procedure: Non-fasted, 10-12 week old, male BDF1 mice are dosed by oral gavage twice daily with either vehicle (5 mL/kg), reference item (Budesonide 2.5 mg/kg) or test compound (1, 5 or 50 mg/kg) one day before (Day −1) stimulation of the inflammatory response by treatment with 2,4,6-trinitrobenzenesulphonic acid (TNBS) (15 mg/mL in 50% ethanol/50% saline). On Day 0 of the study TNBS (200 μL) is administered intra-colonically via a plastic catheter followed by BID dosing of the vehicle, reference or test compound for 2 or 4 days. During the study animals are weighed every day and stool observations are made and recorded as a score, based on stool consistency. At the time of sacrifice on Day 2 (or Day 4) the large intestine is removed and the length and weight recorded. Sections of the colon are taken for either MPO analysis to determine neutrophil infiltration or for histopathology involving scoring to determine disease severity.

T1 sequence (Q16539 whole entry, canonical isoform): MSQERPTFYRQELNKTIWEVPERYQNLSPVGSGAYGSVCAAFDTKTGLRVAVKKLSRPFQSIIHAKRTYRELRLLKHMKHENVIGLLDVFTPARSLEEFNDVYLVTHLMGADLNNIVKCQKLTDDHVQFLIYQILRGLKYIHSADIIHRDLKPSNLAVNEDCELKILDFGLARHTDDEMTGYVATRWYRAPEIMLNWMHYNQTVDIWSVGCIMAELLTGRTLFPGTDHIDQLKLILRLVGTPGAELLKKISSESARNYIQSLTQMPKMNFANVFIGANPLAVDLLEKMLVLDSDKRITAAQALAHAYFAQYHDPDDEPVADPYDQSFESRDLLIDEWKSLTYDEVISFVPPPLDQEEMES

IC50 [1] | IC50 [3] | SMILES | % β-catenin induction ([2]; 1 μg/mL test compound) | % β-catenin induction ([2]; 5 μg/mL test compound) | Cell viability at time point in d-U937 cells 4 h [4] | Cell viability at time point in d-U937 cells 24 h [4] | TNBS LP inflammation (BDF1 mice) | TNBS Ulcer grade (BDF1 mice) | % β-catenin induction ([2]; 10 μg/mL test compound)
138 nM |  | C#Cc1cc(Nc2nccc(Oc3ccc(NC(=O)Nc4cc(C(C)(C)C)nn4-c4ccc(C)cc4)c4ccccc34)n2)cc(C(=O)N[C@@H](C)CN2CCOCC2)c1 [Example 81, (S)-3-((4-((4-(3-(3-(tert-Butyl)-1-(p-tolyl)-1H-pyrazol-5-yl)ureido)naphthalen-1-yl)oxy)pyrimidin-2-yl)amino)-5-ethynyl-N-(1-morpholinopropan-2-yl)benzamide] | 3% | −3% |  |  |  |  | 
261 nM |  | C#Cc1cc(Nc2nccc(Oc3ccc(NC(=O)Nc4cc(C(C)(C)C)nn4-c4ccc(C)cc4)c4ccccc34)n2)cc(C(=O)N[C@H](C)CN2CCOCC2)c1 [Example 83, (R)-3-((4-((4-(3-(3-(tert-Butyl)-1-(p-tolyl)-1H-pyrazol-5-yl)ureido)naphthalen-1-yl)oxy)pyrimidin-2-yl)amino)-5-ethynyl-N-(1-morpholinopropan-2-yl)benzamide] | −3% | −6% |  |  |  |  | 
233 nM |  | C#Cc1cc(Nc2nccc(Oc3ccc(NC(=O)Nc4cc(C(C)(C)C(F)(F)F)nn4-c4ccc(C)cc4)c4ccccc34)n2)cc(C(=O)NCCN2CCOCC2)c1 [Example 76, 3-Ethynyl-N-(2-morpholinoethyl)-5-((4-((4-(3-(1-(p-tolyl)-3-(1,1,1-trifluoro-2-methylpropan-2-yl)-1H-pyrazol-5-yl)ureido)naphthalen-1-yl)oxy)pyrimidin-2-yl)amino)-benzamide] | −3% | −1% |  |  |  |  | 
50 nM | 40 nM | COc1cc(Nc2cc(Oc3ccc(NC(=O)Nc4cc(C(C)(C)C)nn4-c4ccc(C)cc4)c4ccccc34)ccn2)cc(C(=O)NCCN2CCOCC2)c1 [Example 1, 3-((4-((4-(3-(3-(tert-Butyl)-1-(p-tolyl)-1H-pyrazol-5-yl)ureido)naphthalen-1-yl)oxy)pyridin-2-yl)amino)-5-methoxy-N-(2-morpholinoethyl)benzamide] | −7% | −6% | −ve (−ve and +ve indicate that the value is below and above respectively, the no significant effect threshold, defined as 30% inhibition at 1 μg/mL at the time point indicated.) | −ve (−ve and +ve indicate that the value is below and above respectively, the no significant effect threshold, defined as 30% inhibition at 1 μg/mL at the time point indicated.) |  |  | 
 |  | CCCC1O[C@@H]2C[C@H]3[C@@H]4CCC5=CC(=O)C=C[C@]5(C)[C@H]4[C@@H](O)C[C@]3(C)[C@]2(C(=O)CO)O1 (some centres unmarked) [Budesonide, reference compound] |  |  |  |  | 2.5 ± 0.4 | 2.9 ± 0.6 | 
49 nM |  | C#Cc1cc(Nc2nccc(Oc3ccc(NC(=O)Nc4cc(C(C)(C)C)nn4-c4ccc(C)cc4)c4ccccc34)n2)cc(C(=O)NCCN2CCOCC2)c1 [Example 75, 3-((4-((4-(3-(3-(tert-Butyl)-1-(p-tolyl)-1H-pyrazol-5-yl)ureido)naphthalen-1-yl)oxy)pyrimidin-2-yl)amino)-5-ethynyl-N-(2-morpholinoethyl)benzamide] | −14% | −10% |  |  |  |  | 
47 nM |  | C#Cc1cc(Nc2nccc(Oc3ccc(NC(=O)Nc4cc(C(C)(C)C)nn4-c4ccc(OC)nc4)c4ccccc34)n2)cc(C(=O)NCCN2CCOCC2)c1 [Example 73, 3-((4-((4-(3-(3-(tert-Butyl)-1-(6-methoxypyridin-3-yl)-1H-pyrazol-5-yl)ureido)naphthalen-1-yl)oxy)pyrimidin-2-yl)amino)-5-ethynyl-N-(2-morpholinoethyl)benzamide] | 17% | −7% |  |  |  |  | 7%
104 nM | 25 nM | COCCNC(=O)c1cc(Nc2nccc(Oc3ccc(NC(=O)Nc4cc(C(C)C)nn4-c4ccc(OC)cc4)c4ccccc34)n2)cc(OC)c1 [Example 11, 3-((4-((4-(3-(3-Isopropyl-1-(4-methoxyphenyl)-1H-pyrazol-5-yl)ureido)naphthalen-1-yl)oxy)pyrimidin-2-yl)amino)-5-methoxy-N-(2-methoxyethyl)benzamide] | −1% | 1% | −ve (−ve and +ve indicate that the value is below and above respectively, the no significant effect threshold, defined as 30% inhibition at 1 μg/mL at the time point indicated.) | −ve (−ve and +ve indicate that the value is below and above respectively, the no significant effect threshold, defined as 30% inhibition at 1 μg/mL at the time point indicated.) |  |  | 1%
158 nM |  | C#Cc1cc(Nc2nccc(Oc3ccc(NC(=O)Nc4cc(C(C)(C)C)nn4-c4ccc(OC)cc4)c4ccccc34)n2)cc(C(=O)N[C@@H](C)COC)c1 [Example 85, (S)-3-((4-((4-(3-(3-(tert-Butyl)-1-(4-methoxyphenyl)-1H-pyrazol-5-yl)ureido)-naphthalen-1-yl)oxy)pyrimidin-2-yl)amino)-5-ethynyl-N-(1-methoxypropan-2-yl)-benzamide] | 7% | 3% |  |  |  |  | 6%
